Measured values reported in patent publication US20100099629A1, “OPHTHALMOLOGICAL COMPOSITION” (Nihon Tenganyaku Kenkyusho Co., LTD., priority 2002, published 2010).
Marks after values point to notes of the source that are not given here.

Key:
[1] = test system: rabbit corneal wound model; assay: Corneal wound healing promotion action 1 (in vivo), wound of approximately 6 mm; settings: 5 μM eye drop, 30 μl instillation
Protocol: Using a male Japanese white rabbit, a wound of approximately 6 mm in diameter was produced in the cornea by inducing corneal epithelial abrasion in accordance with the method of Cintron et al. (Ophthalmic Res., 11, pp. 90-96 (1979)). The wound area was measured using the fluorescein-stained area as an index. The effects of the test compound on corneal wound healing were examined.
The eye drops containing the respective concentrations of the test compound were instilled (30 μl at a time) at 0, 3, 6, 9, 12, 18, 24, 27, 30, 33, 36, 42, and 48 hours after inducing corneal epithelial abrasion. In measuring the wound area, fluorescein staining was carried out and a photograph of the cornea was measured. The fluorescein-stained area of the photographed cornea was computed using an image analysis processing system.
(§1) In Tables 1 and 2, the respective values indicate the mean value±standard deviation (n=6). Statistical analysis was carried out using Dunnett's multiple comparison with respect to PBS with the area of the corneal wound portion immediately after (0 hours after) corneal epithelial abrasion being set to 100% (*p<0.05, **p<0.01; vs. control).

[2] = test system: rabbit corneal wound model; assay: Corneal wound healing promotion action 2 (in vivo), wound of approximately 8 mm; settings: 0.3% eye drop, 25 μl instillation
Protocol: Using the same method as (2) above, corneal epithelial abrasion was induced in a Japanese white rabbit to produce a wound of approximately 8 mm in diameter in the cornea. The wound area was measured using the fluorescein-stained area as an index to examine the effects on corneal wound healing.
The eye drops containing the respective concentrations of the test compound were instilled (25 μl at a time) at 0, 6, 12, 18, 24, 30, 36, 42, 48, and 54 hours after induction corneal epithelial abrasion. In measuring the wound area, fluorescein staining was carried out and a photograph of the cornea was measured. The fluorescein-stained area of the photographed cornea was computed using an image analysis processing system.
as §1, with “Tables 3” for “Tables 1”, “and 4,” for “and 2,”, “to physiological saline” for “to PBS”

Substance	Healing ratio (%) ([1]; 0 hr (baseline))	Healing ratio (%) ([1]; 6 hr)	Healing ratio (%) ([1]; 12 hr)	Healing ratio (%) ([1]; 24 hr)	Healing ratio (%) ([1]; 36 hr)	Healing ratio (%) ([1]; 48 hr)	Healing ratio (%) ([2]; 0 hr (baseline))	Healing ratio (%) ([2]; 12 hr)	Healing ratio (%) ([2]; 18 hr)	Healing ratio (%) ([2]; 24 hr)	Healing ratio (%) ([2]; 30 hr)
EGF: polypeptide with a molecular weight of 6000, mitosis-promoting growth factor for corneal epithelium	0%	14.49 ± 3.42** %	31.63 ± 1.29** %	70.78 ± 6.91** %	96.41 ± 3.97* %	99.58 ± 1.03%	–	–	–	–	–
hyaluronic acid	–	–	–	–	–	–	0%	13.98 ± 4.88* %	28.45 ± 3.37* %	60.78 ± 8.07** %	60.78 ± 8.07* %
